Experimental data: US8455528B2, “Imidazole derivatives useful as inhibitors of FAAH” (Merck Sharp & Dohme Corp., priority 2008, dated 2013)

Columns and labels:
[1] = target: T1, Human FAAH (Homo sapiens, UniProt O00519); experiment: Human FAAH whole cell assay (FAAH_CHO cells); assay type: cell-based; conditions: FAAH inhibition, whole CHO cells expressing human FAAH
T1 construct: The full length FAAH was subcloned into the mammalian expression vector, pcDEF.neo; expressed in transfected cells
T1 sequence (O00519 1-579): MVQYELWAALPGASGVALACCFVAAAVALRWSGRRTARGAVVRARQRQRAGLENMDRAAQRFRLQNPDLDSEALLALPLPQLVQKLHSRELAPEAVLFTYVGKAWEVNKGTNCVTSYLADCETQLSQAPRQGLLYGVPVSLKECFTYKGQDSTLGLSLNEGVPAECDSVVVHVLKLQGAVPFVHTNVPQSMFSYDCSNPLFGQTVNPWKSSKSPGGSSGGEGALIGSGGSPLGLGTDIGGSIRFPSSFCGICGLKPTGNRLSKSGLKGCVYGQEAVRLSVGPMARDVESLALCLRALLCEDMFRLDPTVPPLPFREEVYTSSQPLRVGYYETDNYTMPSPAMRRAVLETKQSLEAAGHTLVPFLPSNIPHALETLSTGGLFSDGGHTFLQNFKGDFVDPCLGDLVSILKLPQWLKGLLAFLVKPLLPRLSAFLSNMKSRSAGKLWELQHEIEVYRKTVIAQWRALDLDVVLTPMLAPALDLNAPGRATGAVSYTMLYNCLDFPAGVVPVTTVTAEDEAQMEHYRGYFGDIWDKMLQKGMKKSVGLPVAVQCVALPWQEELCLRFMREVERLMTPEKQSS
Source text: To assist in assay development stable cell lines for human, murine and rat full length FAAH were developed. Human FAAH cDNA (Accession No: NM_001441.1) was purchased from Origene (Rockville, Md.). The full length FAAH was subcloned into the mammalian expression vector, pcDEF.neo, using XbaI and EcoRI restriction sites and used for stable cell line generation.
(§1) Murine (accession number NM_010173) and Rat FAAH (accession number NM_024132) was amplified by reverse transcriptase polymerase chain reaction (RT-PCR) from brain cDNA (BD Biosciences, San Jose, Calif.) using primers 1 and 2 or primers 1 and 3 respectively (see Table). The resulting PCR product was ligated into pCR4 TOPO and DNA sequence confirmed. The full length murine FAAH was subcloned into the mammalian expression vector, pcDEFneo using either EcoRI (murine) or KpnI and EcoRI (rat) restriction sites. Chinese hamster ovary cells (CHO) were transfected following manufacturers protocol (AMAXA). Forty eight hours post transfection, cells were trypsinized and transferred to 96 well plates in Iscove's DMEM media supplemented with 2 mM Glutamine, 10% fetal calf serum, 1 mg/ml geneticin and HT Supplement (0.1 mM sodium hypoxanthine, 0.016 mM thymidine) in order to isolate single clones. Following selection in geneticin, individual clones were selected and FAAH activity was assessed using a whole cell fluorescent anandamide assay, modified from Ramarao et al (2005). Following removal of tissue culture media cells were dislodged following addition of Cellstripper (Mediatech, Inc. Manassas, Va.) and transferred to 96 well black clear bottom assay plate, centrifuged at 1,000 rpm for 3 mins and media removed and replaced with assay buffer (50 mM Tris pH8.0, 1 mM EDTA, 0.1% fatty acid free BSA). The reaction was initiated by addition of fluorescent substrate, AMC Arachidonoyl Amide (Cayman Chemical, Ann Arbor, Mich.) to 1 μM and reaction allowed to proceed for 2 hours at room temperature. Release of fluorescence was monitored in a CytoFluor Multiplate Reader. Cells expressing the highest amount of FAAH activity were selected for study with FAAH inhibitors.
(§2) (American Radiolabeled Chemicals; 1 mCi/ml) with FAAH (Life Sciences (1995), 56, 1999-2005 and Journal of Pharmacology and Experimented Therapeutics (1997), 283, 729-734), Analytical. Biochemistry (2003), 318, 270-5. In addition, routine assays were performed monitoring hydrolysis of arachidonyl-7-amino-4-methylcoumarin amide (AAMCA) by following increase in fluorescence upon release of 7-amino 4-methyl coumarin (λEX=355 nm, (λEM=460 nm). Analytical. Biochemistry (2005). 343, 143-51
(§3) Assays are performed on either cell lysate or microsome fractions prepared as described or in whole cell format employing either the fluorescent substrate AAMCA (Cayman chemical, Ann Arbor, Mich.) or ^3H-anandmaide ([ETHANOLAMINE-1-3H] American Radiolabeled Chemicals; 1 mCi/ml). The cell lysate or microsome assay is performed in Costar black wall, clear bottom plates by adding FAAH_CHO (whole cell, cell lysate or microsome) in assay buffer (50 mM Phosphate, pH 8.0, 1 mM EDTA, 200 mM KCl, 0.2% glycerol, 0.1% fatty acid free BSA) to each well, followed by either DMSO or compound and allowed to incubate at 22-25° C. for fifteen minutes. AAMCA substrate was used to achieve a final concentration of 1 μM and reaction allowed to proceed at room temperature for 1-3 hours. Fluorescent release as a measure of FAAH activity was monitored by reading the plate in a CytoFluor Multiplate Reader ([…]). Whole cell assay is conducted with cells harvested after rinsing tissue culture flasks three times with Ca^++Mg^++ free PBS, incubating for 10 min in Enzyme free dissociation media and centrifuging for 5 minutes at 1,000 rpm in table top centrifuge. Cells are resuspended in assay buffer at desired cell number in (4×10^4 cells/assay in 96-well format; 1×10^4 cells/assay in 384-well format) and assayed as described.

[2] = target: T2, Rat FAAH (Rattus norvegicus, UniProt P97612); experiment: Rat FAAH whole cell assay (FAAH_CHO cells); assay type: cell-based; conditions: FAAH inhibition, whole CHO cells expressing rat FAAH
T2 construct: expressed in transfected cells
T2 sequence (P97612 1-579): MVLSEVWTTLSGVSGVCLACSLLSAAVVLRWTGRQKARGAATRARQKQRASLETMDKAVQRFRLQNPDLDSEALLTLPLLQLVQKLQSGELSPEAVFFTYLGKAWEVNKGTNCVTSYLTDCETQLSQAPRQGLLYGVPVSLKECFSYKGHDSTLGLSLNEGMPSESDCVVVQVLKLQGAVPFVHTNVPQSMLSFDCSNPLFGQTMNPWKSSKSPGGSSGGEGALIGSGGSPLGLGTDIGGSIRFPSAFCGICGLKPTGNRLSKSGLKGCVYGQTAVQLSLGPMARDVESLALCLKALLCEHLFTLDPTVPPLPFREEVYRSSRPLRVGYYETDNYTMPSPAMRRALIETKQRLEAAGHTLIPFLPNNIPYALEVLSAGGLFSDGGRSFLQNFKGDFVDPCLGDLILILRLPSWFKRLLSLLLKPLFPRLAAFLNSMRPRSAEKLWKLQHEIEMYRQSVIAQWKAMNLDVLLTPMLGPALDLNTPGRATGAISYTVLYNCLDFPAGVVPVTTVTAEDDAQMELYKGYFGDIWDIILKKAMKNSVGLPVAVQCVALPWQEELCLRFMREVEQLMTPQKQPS
Source text: as §1, §2, §3

Row | IC50 [1] [µM] | IC50 [2] [µM] | Compound
1 | 0.0848 | 0.0301 | Cn1c(-c2ccccc2)nc(-c2ccc(C#N)cc2)c1Sc1ccc(Cl)cc1 [Ex 2, 4-{5-[(4-Chlorophenyl)thio]-1-methyl-2-phenyl-1H-imidazol-4-yl}benzonitrile]
2 | 3 | 0.702 | CS(=O)(=O)c1ccc(-c2nc(C3CCC3)[nH]c2Sc2ccc(Cl)cc2)cc1 [Ex 13]
3 | 0.107 | 0.146 | Cn1c(C2CCC2)nc(-c2ccc(S(C)(=O)=O)cc2)c1Sc1ccc(Cl)cc1 [Ex 14]
4 | 0.48 | 0.105 | CC(C)c1nc(-c2ccc(S(C)(=O)=O)cc2)c(Sc2ccc(Cl)cc2)n1C [Ex 29, 5-[(4-Chlorophenyl)thio]-2-isopropyl-1-methyl-4-[4-(methylsulfonyl)phenyl]-1H-imidazole]
5 | 2.98 | 1.21 | Cn1cnc(-c2ccc(C#N)cc2)c1Sc1ccc(Cl)cc1 [Ex 33, 4-{5-[(4-chlorophenyl)thio]-1-methyl-1H-imidazol-4-yl}benzonitrile]
6 | 0.0486 | 0.0634 | Cn1c(-c2ccccn2)nc(-c2ccc(-c3nnco3)cc2)c1Sc1ccc(Cl)cn1 [Ex 36, 5-Chloro-2-({1-methyl-4-[4-(1,3,4-oxadiazol-2-yl)phenyl]-2-pyridin-2-yl-1H-imidazol-5-yl}thio)pyridine]
7 | 0.0678 | 0.0596 | Cn1c(-c2ccccn2)nc(-c2ccc(C(O)C(F)F)cc2)c1Sc1ccc(Cl)cc1 (stereo not drawn) [Ex 57, 1-(4-{5-[(4-Chlorophenyl)thio]-1-methyl-2-pyridin-2-yl-1H-imidazol-4-yl}phenyl)-2,2-difluoroethanol]
8 | 0.0522 | 0.0319 | Cn1c(-c2ccccn2)nc(-c2ccc(-n3ccnn3)cc2)c1Sc1ccc(Cl)cc1 [Ex 66]
9 | 1 | 0.87 | Cn1c(-c2ccccn2)nc(-c2ccc(N)cc2)c1Sc1ccc(Cl)cc1 [Ex 98, 4-{5-[(4-Chlorophenyl)thio]-1-methyl-2-pyridin-2-yl-1H-imidazol-4-yl}aniline]
